# Test results from US20240025884A1 (Dong-A ST Co., Ltd., priority 2022, published 2024).
# pIC50: −log10 of the molar value.
# Target: GCN2 (Homo sapiens (Human), UniProt Q9P2K8)
# Assay: GCN2 Biochemical Assay (TR-FRET, GFP-eIF2S1 substrate phosphorylation)
# Settings: read-out: IC50 (GCN2 Inhibitory Activity)
# Procedure: Experimental Example 1: GCN2 Biochemical Assay
# An inhibitory effect of the inventive compound on GCN2 was identified as follows.
# 384-well (Greiner #784075) (or 1536-well [Greiner #782075]) plates containing 60 nl (or 20 nl for 1536-well) of compound in 100% DMSO (10 concentrations serially diluted 3.16-fold) were prepared. Two copies of plates were used—one for the GCN2 assay and a second for an artifact plate. Working reagents were prepared as follows—reaction buffer: Tris pH 7.5 20 mM, MgCl2 5 mM, DTT 1 mM, Brij-35 0.005%, EGTA 0.5 mM in water; 2× enzyme solution: GCN2 (produced in-house) 1.6 nM in reaction buffer; 2× substrate solution: GFP-eIFS1 (Thermo Fisher Scientific, PV4809) 50 nM, ATP 0.2 mM, tRNA 0.4 mg/ml in reaction buffer; p-GFP-eIF2S1 (artifact) solution: p-GFP-eIFS1 (produced by incubation of 100 nM GFP-eIF2S1 in reaction buffer with 100 uM ATP and 1 nM PERK KD enzyme for 3 hr at room temperature) 2 nM in reaction buffer; 3× stop/antibody solution: p-GFP-EIF2S1 Th-Ab (Thermo Fisher Scientific, PV4816) 6 nM, AZ13933939 3 uM, BSA 3% in reaction buffer. Reagents were loaded onto a liquid dispenser (Certus FLEX, Trajan Scientific and Medical), and 3 ul (1 ul for 1536-well) of 2× enzyme solution, followed by 3 ul (1 ul for 1536-well) of 2× substrate solution was added to the plates. When small numbers of plates were processed, the enzyme solution was added first to all plates, then the valve used for the substrate solution was primed immediately prior to use. Plates were tapped or spun 1 min/1K/RT to ensure proper mixing, followed by incubation at room temperature for 70 mins, covered/stacked in the dark. For the artifact plate, 6 ul of p-GFP-eIF2S1 solution was added prior to adding the stop/antibody solution. 3 ul (1 ul for 1536-well) of 3× stop/antibody solution was added to the plates, followed by a spin-down for 1 min/1K/RT, and incubation for 2-3 hr, sealed or covered with lids in the dark at room temperature. Plates were read on a plate reader (PHERAstar FSX, BMF Labtech) at Ex 340/Em 490/Em 520 nm.
# GCN2, sequence (Q9P2K8 whole entry): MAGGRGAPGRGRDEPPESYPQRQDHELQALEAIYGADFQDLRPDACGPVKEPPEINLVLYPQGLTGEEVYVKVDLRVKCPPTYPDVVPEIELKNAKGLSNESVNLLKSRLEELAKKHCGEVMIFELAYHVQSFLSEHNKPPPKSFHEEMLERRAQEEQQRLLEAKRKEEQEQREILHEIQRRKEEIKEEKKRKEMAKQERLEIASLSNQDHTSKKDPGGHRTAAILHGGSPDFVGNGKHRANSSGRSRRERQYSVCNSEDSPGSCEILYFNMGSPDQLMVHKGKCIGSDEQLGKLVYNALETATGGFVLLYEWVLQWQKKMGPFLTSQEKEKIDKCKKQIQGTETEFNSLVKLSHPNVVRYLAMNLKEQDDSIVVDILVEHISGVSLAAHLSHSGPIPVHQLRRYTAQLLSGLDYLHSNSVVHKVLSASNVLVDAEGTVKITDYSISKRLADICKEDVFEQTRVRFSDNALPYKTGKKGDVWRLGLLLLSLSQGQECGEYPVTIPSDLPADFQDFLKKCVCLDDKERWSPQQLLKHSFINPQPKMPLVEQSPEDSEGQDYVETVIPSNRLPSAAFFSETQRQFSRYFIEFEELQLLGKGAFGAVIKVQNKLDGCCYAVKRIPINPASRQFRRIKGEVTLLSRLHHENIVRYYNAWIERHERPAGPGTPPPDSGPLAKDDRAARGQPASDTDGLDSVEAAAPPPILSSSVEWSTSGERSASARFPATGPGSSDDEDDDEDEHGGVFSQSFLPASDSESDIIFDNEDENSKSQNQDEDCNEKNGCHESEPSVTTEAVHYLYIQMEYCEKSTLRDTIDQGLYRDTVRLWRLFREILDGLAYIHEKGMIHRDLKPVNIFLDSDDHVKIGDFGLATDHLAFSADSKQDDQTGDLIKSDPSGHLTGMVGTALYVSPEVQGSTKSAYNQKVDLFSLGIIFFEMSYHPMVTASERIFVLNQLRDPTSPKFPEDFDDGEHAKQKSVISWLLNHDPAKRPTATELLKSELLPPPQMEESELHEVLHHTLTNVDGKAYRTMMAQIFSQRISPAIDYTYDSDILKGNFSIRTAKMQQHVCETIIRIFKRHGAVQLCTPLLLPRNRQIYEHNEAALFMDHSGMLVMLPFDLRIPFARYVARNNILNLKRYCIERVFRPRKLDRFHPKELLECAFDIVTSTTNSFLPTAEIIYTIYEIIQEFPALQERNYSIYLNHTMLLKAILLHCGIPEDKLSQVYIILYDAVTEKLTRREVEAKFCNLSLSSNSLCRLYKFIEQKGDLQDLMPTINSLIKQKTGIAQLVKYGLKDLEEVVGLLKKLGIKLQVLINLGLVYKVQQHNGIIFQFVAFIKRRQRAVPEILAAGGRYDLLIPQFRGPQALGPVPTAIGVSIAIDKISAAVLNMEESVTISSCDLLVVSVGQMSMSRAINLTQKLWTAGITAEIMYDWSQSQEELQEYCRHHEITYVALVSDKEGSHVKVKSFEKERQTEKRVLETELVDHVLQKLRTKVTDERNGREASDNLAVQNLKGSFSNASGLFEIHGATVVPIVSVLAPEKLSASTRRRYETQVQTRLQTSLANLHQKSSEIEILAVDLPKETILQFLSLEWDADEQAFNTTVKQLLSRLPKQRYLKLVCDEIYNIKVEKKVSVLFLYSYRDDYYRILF
row,SMILES,pIC50
1,"Cc1cc(C)nc(OC2CCN(CC(=O)Nc3cccc4c(-c5nc(Nc6cc(C)n(C)n6)ncc5C)c[nH]c34)CC2)n1 [Example 42, N-(3-(2-((1,5-dimethyl-1H-pyrazol-3-yl)amino)-5-methylpyrimidin-4-yl)-1H-indol-7-yl)-2-(4-((4,6-dimethylpyrimidin-2-yl)oxy)piperidin-1-yl)acetamide]",7.00 to 8.00
2,"Cc1cnc(Nc2cc(C)n(C)n2)nc1-c1c[nH]c2c(NC(=O)CN3CCC(Oc4cc(C(=O)NC5CC5)on4)CC3)cccc12 [Example 43, N-cyclopropyl-3-((1-(2-((3-(2-((1,5-dimethyl-1H-pyrazol-3-yl)amino)-5-methylpyrimidin-4-yl)-1H-indol-7-yl)amino)-2-oxoethyl)piperidin-4-yl)oxy)isoxazole-5-carboxamide]",7.00 to 8.00
3,"Cc1cnc(Nc2cc(C)n(C)n2)nc1-c1c[nH]c2c(NC(=O)CN3CCCC(Oc4cc(C(=O)NC5CC5)on4)C3)cccc12 (stereo not drawn) [Example 44, N-cyclopropyl-3-((1-(2-((3-(2-((1,5-dimethyl-1H-pyrazol-3-yl)amino)-5-methylpyrimidin-4-yl)-1H-indol-7-yl)amino)-2-oxoethyl)piperidin-3-yl)oxy)isoxazole-5-carboxamide]",6.00 to 7.00
4,"Cc1cnc(Nc2cc(C)n(C)n2)nc1-c1c[nH]c2c(NC(=O)CN3C[C@H](F)[C@H](Oc4ccnc(NC5CC5)n4)C3)cccc12 [Example 52, 2-((3R,4S)-3-((2-(cyclopropylamino)pyrimidin-4-yl)oxy)-4-fluoropyrrolidin-1-yl)-N-(3-(2-((1,5-dimethyl-1H-pyrazol-3-yl)amino)-5-methylpyrimidin-4-yl)-1H-indol-7-yl)acetamide]",> 8.00
5,"Cc1cnc(Nc2cc(C)n(C)n2)nc1-c1c[nH]c2c(NC(=O)CN3C[C@@H](F)[C@H](Oc4ccnc(NC5CC5)n4)C3)cccc12 [Example 53, 2-((3R,4R)-3-((2-(cyclopropylamino)pyrimidin-4-yl)oxy)-4-fluoropyrrolidin-1-yl)-N-(3-(2-((1,5-dimethyl-1H-pyrazol-3-yl)amino)-5-methylpyrimidin-4-yl)-1H-indol-7-yl)acetamide]",> 8.00
6,"Cc1cnc(Nc2cc(C)n(C)n2)nc1-c1c[nH]c2c(NC(=O)CN3C[C@@H](F)[C@@H](Oc4ccnc(NC5CC5)n4)C3)cccc12 [Example 54, 2-((3S,4R)-3-((2-(cyclopropylamino)pyrimidin-4-yl)oxy)-4-fluoropyrrolidin-1-yl)-N-(3-(2-((1,5-dimethyl-1H-pyrazol-3-yl)amino)-5-methylpyrimidin-4-yl)-1H-indol-7-yl)acetamide]",7.00 to 8.00
7,"COC(=O)[C@@H]1C[C@H](Oc2ccnc(NC3CC3)n2)CN1CC(=O)Nc1cccc2c(-c3nc(Nc4cc(C)n(C)n4)ncc3C)c[nH]c12 [Example 55, methyl (2S,4S)-4-((2-(cyclopropylamino)pyrimidin-4-yl)oxy)-1-(2-((3-(2-((1,5-dimethyl-1H-pyrazol-3-yl)amino)-5-methylpyrimidin-4-yl)-1H-indol-7-yl)amino)-2-oxoethyl)pyrrolidine-2-carboxylate]",> 8.00
8,"Cc1cnc(Nc2cc(C)n(C)n2)nc1-c1c[nH]c2c(NC(=O)CN3C[C@@H](Oc4ccnc(NC5CC5)n4)C[C@H]3C(=O)O)cccc12 [Example 56, (2S,4S)-4-((2-(cyclopropylamino)pyrimidin-4-yl)oxy)-1-(2-((3-(2-((1,5-dimethyl-1H-pyrazol-3-yl)amino)-5-methylpyrimidin-4-yl)-1H-indol-7-yl)amino)-2-oxoethyl)pyrrolidine-2-carboxylic acid]",7.00 to 8.00
9,"Cc1cnc(Nc2cc(C)n(C)n2)nc1-c1c[nH]c2c(NC(=O)CN3C[C@@H](Oc4ccnc(NC5CC5)n4)C[C@H]3CO)cccc12 [Example 57, 2-((2S,4S)-4-((2-(cyclopropylamino)pyrimidin-4-yl)oxy)-2-(hydroxymethyl)pyrrolidin-1-yl)-N-(3-(2-((1,5-dimethyl-1H-pyrazol-3-yl)amino)-5-methylpyrimidin-4-yl)-1H-indol-7-yl)acetamide]",> 8.00
10,"Cc1cnc(Nc2cc(C)n(C)n2)nc1-c1c[nH]c2c(NC(=O)CN3C[C@@H](Oc4ccnc(NC5CC5)n4)C[C@H]3C(N)=O)cccc12 [Example 58, (2S,4S)-4-((2-(cyclopropylamino)pyrimidin-4-yl)oxy)-1-(2-((3-(2-((1,5-dimethyl-1H-pyrazol-3-yl)amino)-5-methylpyrimidin-4-yl)-1H-indol-7-yl)amino)-2-oxoethyl)pyrrolidine-2-carboxamide]",> 8.00

# Continued, values first:
row,pIC50,SMILES
1,7.00 to 8.00,"Cc1cnc(Nc2cc(C)n(C)n2)nc1-c1c[nH]c2c(NC(=O)CN3CCC(Oc4ncccn4)CC3)cccc12 [Example 41, N-(3-(2-((1,5-dimethyl-1H-pyrazol-3-yl)amino)-5-methylpyrimidin-4-yl)-1H-indol-7-yl)-2-(4-(pyrimidin-2-yloxy)piperidin-1-yl)acetamide]"
2,6.00 to 7.00,"Cc1cnc(Nc2cc(C)n(C)n2)nc1-c1c[nH]c2c(NC(=O)CN3CCC(CC#N)C3)cccc12 (stereo not drawn) [Example 45, 2-(3-(cyanomethyl)pyrrolidin-1-yl)-N-(3-(2-((1,5-dimethyl-1H-pyrazol-3-yl)amino)-5-methylpyrimidin-4-yl)-1H-indol-7-yl)acetamide]"
3,6.00 to 7.00,"Cc1cnc(Nc2cc(C)n(C)n2)nc1-c1c[nH]c2c(NC(=O)CN3CC[C@H](CC#N)C3)cccc12 [Example 46, (R)-2-(3-(cyanomethyl)pyrrolidin-1-yl)-N-(3-(2-((1,5-dimethyl-1H-pyrazol-3-yl)amino)-5-methylpyrimidin-4-yl)-1H-indol-7-yl)acetamide]"
4,7.00 to 8.00,"Cc1cnc(Nc2cc(C)n(C)n2)nc1-c1c[nH]c2c(NC(=O)CN3CC[C@H](Nc4ccncn4)C3)cccc12 [Example 47, (S)-N-(3-(2-((1,5-dimethyl-1H-pyrazol-3-yl)amino)-5-methylpyrimidin-4-yl)-1H-indol-7-yl)-2-(3-(pyrimidin-4-ylamino)pyrrolidin-1-yl)acetamide]"
5,7.00 to 8.00,"Cc1cnc(Nc2cc(C)n(C)n2)nc1-c1c[nH]c2c(NC(=O)CN3CC[C@@H](Nc4ccncn4)C3)cccc12 [Example 48, (R)-N-(3-(2-((1,5-dimethyl-1H-pyrazol-3-yl)amino)-5-methylpyrimidin-4-yl)-1H-indol-7-yl)-2-(3-(pyrimidin-4-ylamino)pyrrolidin-1-yl)acetamide]"
6,7.00 to 8.00,"Cc1cnc(Nc2cc(C)n(C)n2)nc1-c1c[nH]c2c(NC(=O)CN3CC[C@@H](Nc4ccncc4)C3)cccc12 [Example 49, (R)-N-(3-(2-((1,5-dimethyl-1H-pyrazol-3-yl)amino)-5-methylpyrimidin-4-yl)-1H-indol-7-yl)-2-(3-(pyridin-4-ylamino)pyrrolidin-1-yl)acetamide]"
7,7.00 to 8.00,"Cc1cnc(Nc2cc(C)n(C)n2)nc1-c1c[nH]c2c(NC(=O)CN3C[C@@H](F)[C@@H](O)C3)cccc12 [Example 50, N-(3-(2-((1,5-dimethyl-1H-pyrazol-3-yl)amino)-5-methylpyrimidin-4-yl)-1H-indol-7-yl)-2-((3R,4S)-3-fluoro-4-hydroxypyrrolidin-1-yl)acetamide]"
8,7.00 to 8.00,"Cc1cnc(Nc2cc(C)n(C)n2)nc1-c1c[nH]c2c(NC(=O)CN3C[C@@H](F)[C@H](Oc4ccncc4)C3)cccc12 [Example 51, N-(3-(2-((1,5-dimethyl-1H-pyrazol-3-yl)amino)-5-methylpyrimidin-4-yl)-1H-indol-7-yl)-2-((3R,4R)-3-fluoro-4-(pyridin-4-yloxy)pyrrolidin-1-yl)acetamide]"
